Results as given in patent US20120070392A1, “COMPOSITION FOR INHIBITING ERYTHEMA CAUSED BY ULTRAVIOLET RADIATION CONTAINING A DIPEPTIDE AS ACTIVE INGREDIENT” (priority 2009, published 2012).

System: PGE2 production
Experiment: Inhibition of UVB-induced PGE2 production in cultured human keratinocytes (PGE2 assay kit, calibrated with MTT absorbance)
Type: cell-based
Settings: not given
Protocol: Human keratinocytes were seeded at a density of 1×10^5 cells/well to 6-well plates containing 2 mL of KGM(keratinocyte growth medium, Clonetics, San Diego, Calif., USA) per well and cultured overnight. Then, the medium was replaced with KBM(keratinocyte basal medium) supplemented with 0.1% BSA(bovine serum albumin) and the cells were cultured for an additional 24 hours. Subsequently, the cells were pre-treated for an additional 24 hours with 2 mL of the same medium containing 10 μg/ml of each of the dipeptides listed in Table 1. […] The pre-treated medium was transferred to new 24 well plates and 1 mL of DPBS(Dulbecco's phosphate buffered saline) was added to the cells in each well. During UV irradiation, the transferred medium was stored in a cell incubator. […] At this time, the control was covered with aluminum foil. After the removal of DPBS, the transferred medium was returned to each well. The cells were further cultured for 24 hours, after which 1 mL of the medium was transferred to microcentrifuge tubes. […] The supernatants were then removed and the formazan crystals were solubilized in 1 ml of DMSO(dimethylsulfoxide). One hundred μL of the solution was transferred to each well of 96-well plates and an optical density was determined at 540 nm using an ELISA(enzyme-linked immunosorbent assay) reader. […] The concentration of PGE2 was determined using a PGE2 Assay Kit(KGE004, R&D Systems, Inc., Minneapolis, Minn., USA) according to the manufacturer's instruction. […] After removal of the reaction, the wells were washed five times with 400 μL of wash buffer. To each well was added 200 μL of a substrate solution, followed by incubation for 20 30 min. The reaction was terminated with 50 μL of a stop solution per well before determining absorbance at 450 nm on an ELISA reader. The PGE2 concentration of each sample was calculated from the standard graph and calibrated with the absorbance obtained in the MTT assay to determine their inhibitory activity against PGE2 production.

| Molecule | % Inhibition against PGE2 Production |
| --- | --- |
| aspartic acid-histidine [DH] | 59.2% |
| aspartic acid-asparagine [DN] | 85.6% |
| threonine-methionine [TM] | 67.9% |
| asparagine-histidine [NH] | 65.8% |
| asparagine-threonine [NT] | 57.2% |
| alanine-tyrosine [AY] | 31.8% |
| proline-lysine [PK] | 96.3% |
| valine-cysteine [VC] | 43.3% |
| proline-isoleucine [PI] | 87.2% |
| tyrosine-phenylalanine [YF] | 12.7% |
| isoleucine-histidine [IH] | 27.1% |
| histidine-tyrosine [HY] | 77.9% |
| proline-glutamine [PQ] | 78.1% |
| phenylalanine-tyrosine [FY] | 88.0% |
| arginine-tyrosine [RY] | 67.3% |
| asparagine-valine [NV] | 80.4% |
| NCC(=O)O.O=C(O)[C@@H]1CCCN1 [PG, proline-glycine] | 80.7% |
| proline-serine [PS] | 71.3% |
| glutamic acid-histidine [EH] | 75.4% |
| glutamic acid-methionine [EM] | 58.4% |
| alanine-asparagine | 58.8% |
| tyrosine-lysine [YK] | 89.9% |
| serine-valine [SV] | 31.2% |
| NCC(=O)O.N[C@@H](CC(=O)O)C(=O)O [GD, glycine-aspartic acid] | 23.8% |
| alanine-histidine [AH] | 64.7% |

Same assay, conditions: 10 μg/ml dipeptide, 24 h pre-treatment, human keratinocytes, UVB 100 mJ/cm^2, medium assayed 24 h after irradiation; 0% or lower expressed as zero; 10% or more regarded as effective

| Molecule | % Inhibition against PGE2 Production |
| --- | --- |
| histidine-histidine [HH] | 79.8% |
| isoleucine-alanine [IA] | 38.6% |
| serine-alanine [SA] | 51.0% |
| phenylalanine-histidine [FH] | 39.2% |

Same assay, conditions: 10 μg/ml dipeptide, 24 h pre-treatment, human keratinocytes, UVB 100 mJ/cm^2, medium assayed 24 h after irradiation; […]; 10% or more regarded as effective

| Molecule | % Inhibition against PGE2 Production |
| --- | --- |
| serine-threonine [ST] | 79.5% |
| isoleucine-lysine [IK] | 71.3% |
| serine-serine [SS] | 93.8% |
| serine-lysine [SK] | 44.9% |
| tryptophan-aspartic acid [WD] | 85.9% |
| alanine-cysteine [AC] | 70.8% |
| aspartic acid-valine [DV] | 30.7% |
| serine-aspartic acid [SD] | 58.4% |
| glutamine-asparagine [QN] | 13.9% |
| glutamine-lysine [QK] | 25.9% |
| isoleucine-threonine [IT] | 18.9% |
| tryptophan-asparagine [WN] | 33.1% |
| arginine-leucine [RL] | 30.4% |
| phenylalanine-asparagine [FN] | 81.4% |
| threonine-lysine [TK] | 39.0% |
| alanine-glutamic acid [AE] | 74.6% |
| histidine-tryptophan [HW] | 21.6% |
| glutamic acid-serine [ES] | 48.8% |
| glutamine-phenylalanine [QF] | 19.0% |
| tryptophan-glutamine [WQ] | 88.7% |
| serine-glutamic acid | 44.0% |

| Molecule | % Inhibition against PGE2 Production |
| --- | --- |
| leucine-cysteine [LC] | 33.3% |
| glutamine-glutamine [QQ] | 92.5% |
| aspartic acid-glutamic acid [DE] | 58.5% |
| tryptophan-tyrosine [WY] | 55.6% |
| tryptophan-serine [WS] | 89.0% |
| valine-glutamic acid [VE] | 24.8% |
| threonine-serine [TS] | 55.7% |
| threonine-glutamic acid [TE] | 82.5% |
| tryptophan-cysteine [WC] | 18.3% |
| glutamine-valine [QV] | 59.7% |
| lysine-threonine [KT] | 77.8% |
| leucine-asparagine [LN] | 78.8% |
| serine-glutamine [SQ] | 58.8% |
| valine-isoleucine [VI] | 51.7% |
| phenylalanine-tryptophan [FW] | 92.9% |
| glutamine-aspartic acid [QD] | 66.0% |
| aspartic acid-leucine [DL] | 75.8% |
| lysine-aspartic acid [KD] | 90.3% |
| leucine-lysine [LK] | 82.8% |
| tryptophan-tryptophan [WW] | 34.8% |
